Among the data in patent publication US9777020B2, “Furo-3-carboxamide derivatives and methods of use” (AbbVie Inc., priority 2014, dated 2017) are IC50 values, retold here.

The experiment deals with TrkA (Homo sapiens (Human), UniProt P04629). Put plainly: TrkA kinase HTRF enzyme inhibition assay. It counts as biochemical. Particulars: TrkA pre-incubated with 200 μM ATP. Summed up: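 TrkA (2-10 nM) pre-activated 20 min with 200 μM ATP in HEPES pH 7.4/Mg/Mn buffer, compound added for 10 min, then biotinylated LCK-analog peptide (125 nM) for 1 h at ambient temperature. HTRF phosphotyrosine detection (665/620 ratio); duplicate half-log dilutions, IC50 from initial-rate inhibition via equation 1.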
(In general: Time-resolved FRET reads energy transfer from a long-lived donor to a nearby acceptor.)

Each structure is given as a SMILES string. pIC50: −log10 of the molar value.

TrkA, sequence (P04629 33-796): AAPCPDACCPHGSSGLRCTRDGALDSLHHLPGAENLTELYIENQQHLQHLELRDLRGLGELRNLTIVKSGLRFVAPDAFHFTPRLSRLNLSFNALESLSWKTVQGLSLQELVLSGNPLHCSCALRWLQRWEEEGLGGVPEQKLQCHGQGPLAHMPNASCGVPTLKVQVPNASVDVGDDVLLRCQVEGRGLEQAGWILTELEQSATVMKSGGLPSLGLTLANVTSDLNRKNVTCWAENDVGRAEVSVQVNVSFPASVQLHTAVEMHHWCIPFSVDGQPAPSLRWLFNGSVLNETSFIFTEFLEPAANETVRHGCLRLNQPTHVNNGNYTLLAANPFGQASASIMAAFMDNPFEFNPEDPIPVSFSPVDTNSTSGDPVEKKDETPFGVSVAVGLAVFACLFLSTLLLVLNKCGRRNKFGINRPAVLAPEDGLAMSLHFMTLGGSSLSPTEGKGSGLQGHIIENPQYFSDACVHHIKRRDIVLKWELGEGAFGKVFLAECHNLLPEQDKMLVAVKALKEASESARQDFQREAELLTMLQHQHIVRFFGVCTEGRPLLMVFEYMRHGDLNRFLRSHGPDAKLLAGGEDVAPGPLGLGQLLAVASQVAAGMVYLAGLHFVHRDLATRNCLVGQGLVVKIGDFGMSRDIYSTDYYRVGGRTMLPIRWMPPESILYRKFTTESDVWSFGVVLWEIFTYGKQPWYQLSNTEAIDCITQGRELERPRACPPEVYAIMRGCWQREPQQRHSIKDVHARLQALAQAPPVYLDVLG

Take `CCOc1nc(N2CCN(C(C)=O)CC2)ccc1NC(=O)c1coc2c1C(=O)NC1(CCCCC1)C2` [Example 112, N-[6-(4-acetylpiperazin-1-yl)-2-ethoxypyridin-3-yl]-4′-oxo-4′,7′-dihydro-5′H-spiro[cyclohexane-1,6′-furo[3,2-c]pyridine]-3′-carboxamide]: the pIC50 (usually the IC50 on a negative log10 scale, so that one unit is a factor of ten) is 7.56.
Molecule `CCOc1nc(N2CCN(C(C)=O)CC2)ccc1NC(=O)c1coc2c1C(=O)NC1(C2)CN(C(C)=O)C1` [Example 113, 1-acetyl-N-[6-(4-acetylpiperazin-1-yl)-2-ethoxypyridin-3-yl]-4′-oxo-4′,7′-dihydro-5′H-spiro[azetidine-3,6′-furo[3,2-c]pyridine]-3′-carboxamide] showed a pIC50 of 7.18.
`CCOc1nc(N2CCN(C(C)=O)CC2)ccc1NC(=O)c1coc2c1C(=O)NC1(COC1)C2` [Example 114, N-[6-(4-acetylpiperazin-1-yl)-2-ethoxypyridin-3-yl]-4-oxo-4,7-dihydro-5H-spiro[furo[3,2-c]pyridine-6,3′-oxetane]-3-carboxamide] gave a pIC50 of 8.14.
The figure for `CCOc1nc(N2CCN(C(C)=O)CC2)ccc1NC(=O)c1coc2c1C(=O)N[C@@H]([C@@H](C)O)C2` [Example 115, (6R)—N-[6-(4-acetylpiperazin-1-yl)-2-ethoxypyridin-3-yl]-6-[(1R)-1-hydroxyethyl]-4-oxo-4,5,6,7-tetrahydrofuro[3,2-c]pyridine-3-carboxamide] is 8.07; for `CCOc1nc(N2CCN(C(C)=O)CC2)ccc1NC(=O)c1coc2c1C(=O)N(CCO)C1(CCC1)C2` [Example 116, N-[6-(4-acetylpiperazin-1-yl)-2-ethoxypyridin-3-yl]-5′-(2-hydroxyethyl)-4′-oxo-4′,7′-dihydro-5′H-spiro[cyclobutane-1,6′-furo[3,2-c]pyridine]-3′-carboxamide] it is 8.51; for `CCOc1nc(N2CCN(C(C)=O)CC2)ccc1NC(=O)c1coc2c1C(=O)NC1(CC1)C2` [Example 117, N-[6-(4-acetylpiperazin-1-yl)-2-ethoxypyridin-3-yl]-4′-oxo-4′,7′-dihydro-5′H-spiro[cyclopropane-1,6′-furo[3,2-c]pyridine]-3′-carboxamide] it is 8.28.
`CCOc1nc(N2CCN(C(=NC#N)NC)CC2)ccc1NC(=O)c1coc2c1C(=O)NC1(CCC1)C2` [Example 118, N-{6-[4-(N′-cyano-N-methylcarbamimidoyl)piperazin-1-yl]-2-ethoxypyridin-3-yl}-4′-oxo-4′,7′-dihydro-5′H-spiro[cyclobutane-1,6′-furo[3,2-c]pyridine]-3′-carboxamide] showed a pIC50 of 8.52. This pIC50 is 0.24 log units higher than that of the molecule before.
As for `CCOc1nc(N2CCN(C(C)=O)CC2)ccc1NC(=O)c1coc2c1C(=O)N(CC(O)CO)C(C)(C)C2` (stereo not drawn) [Example 119, N-[6-(4-acetylpiperazin-1-yl)-2-ethoxypyridin-3-yl]-5-(2,3-dihydroxypropyl)-6,6-dimethyl-4-oxo-4,5,6,7-tetrahydrofuro[3,2-c]pyridine-3-carboxamide], the pIC50 was 8.17.
The molecule `COc1cc(N2CCNCC2)ccc1NC(=O)c1coc2c1C(=O)NC(C)(C)C2` [Example 120, N-[2-methoxy-4-(piperazin-1-yl)phenyl]-6,6-dimethyl-4-oxo-4,5,6,7-tetrahydrofuro[3,2-c]pyridine-3-carboxamide] had a pIC50 of 7.55.
For `COc1nc(N2CCN(C(C)=O)CC2)ccc1NC(=O)c1coc2c1C(=O)NC(C)(C)C2` [Example 122, N-[6-(4-acetylpiperazin-1-yl)-2-methoxypyridin-3-yl]-6,6-dimethyl-4-oxo-4,5,6,7-tetrahydrofuro[3,2-c]pyridine-3-carboxamide], the pIC50 is 7.85.
Take `COc1nc(N2CCN(C(=O)N3CCCC3)CC2)ccc1NC(=O)c1coc2c1C(=O)NC(C)(C)C2` [Example 123, N-{2-methoxy-6-[4-(pyrrolidin-1-ylcarbonyl)piperazin-1-yl]pyridin-3-yl}-6,6-dimethyl-4-oxo-4,5,6,7-tetrahydrofuro[3,2-c]pyridine-3-carboxamide]: the pIC50 is 7.92.
The molecule `COc1cc(N2CCNCC2)ccc1NC(=O)c1coc2c1C(=O)NC(C)C2` (stereo not drawn) [Example 124, N-[2-methoxy-4-(piperazin-1-yl)phenyl]-6-methyl-4-oxo-4,5,6,7-tetrahydrofuro[3,2-c]pyridine-3-carboxamide] showed a pIC50 of 7.13.
`COc1cc(N2CCN(S(C)(=O)=O)CC2)ccc1NC(=O)c1coc2c1C(=O)NC(C)(C)C2` [Example 125, N-{2-methoxy-4-[4-(methylsulfonyl)piperazin-1-yl]phenyl}-6,6-dimethyl-4-oxo-4,5,6,7-tetrahydrofuro[3,2-c]pyridine-3-carboxamide] had a pIC50 of 7.44.
Take `CCOc1nc(N2CCNCC2)ccc1NC(=O)c1coc2c1C(=O)NC(C)(C)C2` [Example 127, N-[2-ethoxy-6-(piperazin-1-yl)pyridin-3-yl]-6,6-dimethyl-4-oxo-4,5,6,7-tetrahydrofuro[3,2-c]pyridine-3-carboxamide]: the negative-log IC50 (pIC50) is 7.88. This pIC50 lies 0.44 log units higher than the previous one.
In turn, `CC(C)Oc1nc(N2C[C@H]3CCN[C@H]3C2)ccc1NC(=O)c1coc2c1C(=O)NC(C)(C)C2` [Example 129, N-{6-[(3 aR,6aR)-hexahydropyrrolo[3,4-b]pyrrol-5(1H)-yl]-2-isopropoxypyridin-3-yl}-6,6-dimethyl-4-oxo-4,5,6,7-tetrahydrofuro[3,2-c]pyridine-3-carboxamide] showed a pIC50 of 7.97.
In turn, `COc1nc(N2CC[C@@H]3CN(C)C[C@@H]32)ccc1NC(=O)c1coc2c1C(=O)NC(C)(C)C2` [Example 130, N-{2-methoxy-6-[(3aR,6aR)-5-methylhexahydropyrrolo[3,4-b]pyrrol-1 (2H)-yl]pyridin-3-yl}-6,6-dimethyl-4-oxo-4,5,6,7-tetrahydrofuro[3,2-c]pyridine-3-carboxamide] gave a negative-log IC50 (pIC50) of 7.42.
`CC(C)Oc1nc(N2C[C@@H]3CCN(CCO)[C@@H]3C2)ccc1NC(=O)c1coc2c1C(=O)NC(C)(C)C2` [Example 131, N-{6-[(3aS,6aS)-1-(2-hydroxyethyl)hexahydropyrrolo[3,4-b]pyrrol-5(1H)-yl]-2-isopropoxypyridin-3-yl}-6,6-dimethyl-4-oxo-4,5,6,7-tetrahydrofuro[3,2-c]pyridine-3-carboxamide] had a negative-log IC50 (pIC50) of 7.01.
As for `CC(C)Oc1nc(N2C[C@H]3CCN(C(=O)N4CCN(C)CC4)[C@H]3C2)ccc1NC(=O)c1coc2c1C(=O)NC(C)(C)C2` [Example 132, N-{2-isopropoxy-6-[(3aR,6aR)-1-[(4-methylpiperazin-1-yl)carbonyl]hexahydropyrrolo[3,4-b]pyrrol-5(1H)-yl]pyridin-3-yl}-6,6-dimethyl-4-oxo-4,5,6,7-tetrahydrofuro[3,2-c]pyridine-3-carboxamide], the pIC50 is 8.16.
Regarding `CC(=O)N1CCN(c2ccc(NC(=O)c3coc4c3C(=O)NC(C)(C)C4)c(OC(C)C)n2)C[C@H]1CO` [Example 133, N-{6-[(3S)-4-acetyl-3-(hydroxymethyl)piperazin-1-yl]-2-isopropoxypyridin-3-yl}-6,6-dimethyl-4-oxo-4,5,6,7-tetrahydrofuro[3,2-c]pyridine-3-carboxamide], the pIC50 was 8.48.
Regarding `CC(=O)N1CCN(c2ccc(NC(=O)c3coc4c3C(=O)NC(C)(C)C4)c(OC(C)C)n2)[C@H](CO)C1` [Example 134, N-{6-[(2S)-4-acetyl-2-(hydroxymethyl)piperazin-1-yl]-2-isopropoxypyridin-3-yl}-6,6-dimethyl-4-oxo-4,5,6,7-tetrahydrofuro[3,2-c]pyridine-3-carboxamide], the pIC50 is 8.41.
`CC(C)Oc1nc(N2CCN(C(=O)N3CCOCC3)C[C@H]2CO)ccc1NC(=O)c1coc2c1C(=O)NC(C)(C)C2` [Example 135, N-{6-[(2S)-2-(hydroxymethyl)-4-(morpholin-4-ylcarbonyl)piperazin-1-yl]-2-isopropoxypyridin-3-yl}-6,6-dimethyl-4-oxo-4,5,6,7-tetrahydrofuro[3,2-c]pyridine-3-carboxamide] had a negative logarithm of the IC50 (pIC50) of 8.64.
`CC(C)Oc1nc(N2CC[C@H](N(C)C)C2)ccc1NC(=O)c1coc2c1C(=O)NC(C)(C)C2` [Example 136, N-{6-[(3S)-3-(dimethylamino)pyrrolidin-1-yl]-2-isopropoxypyridin-3-yl}-6,6-dimethyl-4-oxo-4,5,6,7-tetrahydrofuro[3,2-c]pyridine-3-carboxamide]: the pIC50 was 7.99.
Regarding `CC(C)Oc1nc(N2CCC[C@H](CO)C2)ccc1NC(=O)c1coc2c1C(=O)NC(C)(C)C2` [Example 137, N-{6-[(3S)-3-(hydroxymethyl)piperidin-1-yl]-2-isopropoxypyridin-3-yl}-6,6-dimethyl-4-oxo-4,5,6,7-tetrahydrofuro[3,2-c]pyridine-3-carboxamide], the pIC50 is 7.88.
`CC(=O)N1CCN(c2ccc(NC(=O)c3coc4c3C(=O)NC(C)(C)C4)c(OC(C)C)n2)C[C@@H]1CO` [Example 138, N-{6-[(3R)-4-acetyl-3-(hydroxymethyl)piperazin-1-yl]-2-isopropoxypyridin-3-yl}-6,6-dimethyl-4-oxo-4,5,6,7-tetrahydrofuro[3,2-c]pyridine-3-carboxamide] showed a pIC50 of 8.20.
Consider `CC(=O)N1CCN(c2ccc(NC(=O)c3coc4c3C(=O)NC(C)(C)C4)c(OC(C)C)n2)[C@@H](CO)C1` [Example 139, N-{6-[(2R)-4-acetyl-2-(hydroxymethyl)piperazin-1-yl]-2-isopropoxypyridin-3-yl}-6,6-dimethyl-4-oxo-4,5,6,7-tetrahydrofuro[3,2-c]pyridine-3-carboxamide], for which the pIC50 is 8.62.
For `CC(C)Oc1nc(N(CCO)CCO)ccc1NC(=O)c1coc2c1C(=O)NC(C)(C)C2` [Example 140, N-{6-[bis(2-hydroxyethyl)amino]-2-isopropoxypyridin-3-yl}-6,6-dimethyl-4-oxo-4,5,6,7-tetrahydrofuro[3,2-c]pyridine-3-carboxamide], the pIC50 was 7.98.
For the molecule `COCCOc1ccc(NC(=O)c2coc3c2C(=O)NC(C)(C)C3)c(OCCOC)n1` [Example 141, N-[2,6-bis(2-methoxyethoxy)pyridin-3-yl]-6,6-dimethyl-4-oxo-4,5,6,7-tetrahydrofuro[3,2-c]pyridine-3-carboxamide], the pIC50 was 7.22.
